The record followed here is patent US4221794A, “Method of imparting immunomodulating and antiviral activity” (Newport Pharmaceuticals International, Inc., priority 1979, dated 1980).

Broadly, the LD50 is the dose expected to kill half of the subjects tested. Lower therefore signals greater toxicity.

For one data set, the system named is guinea pig macrophages. Briefly: Lymphokine (MMF) induced guinea pig macrophage proliferation. Type of data set: cell-based. The conditions noted are these: plus = immunostimulating, minus = immunoinhibiting, 0 = neither. How it is done: 3. The macrophage represents a subpopulation of white blood cells which is an important component of the immune system in control of both cellular and humoral immunity. The assay system described below evaluates the substances studied as potentiators of macrophage function.
Phytohemagglutinin (PHA) (HA-17) was purchased from Burroughs Wellcome. A preparation containing Macrophage Mitogen Factor (MMF) and Macrophage Activating Factor (MAF) was prepared from antigen-stimulated immune lymph node lymphocytes (guinea pig) as previously described by Hadden et al, Nature 257, 483-485 (1975). […] The active fraction was employed in both the proliferation and activation assays.
Ficoll-hypaque purified human peripheral blood lymphocytes were prepared and PHA-induced lymphocyte proliferation was assayed by the incorporation of tritiated thymidine as described in Hadden et al., Cell. Immunol. 20, 98-103 (1975). Each compound was analyzed in the presence of suboptimal, optimal and supraoptimal concentrations of PHA (0.001, 0.01, 0.1 units/ml respectively). Paraffin oil-induced guinea pig peritoneal macrophages were prepared and incubated as monolayer culture (>98% pure macrophages). Lymphokine (MMF)-induced proliferation was assayed by the incorporation of tritiated thymidine at 3 and 5 days of culture as described, Hadden et al, Nature 257, 483-485 (1975). Lymphokine (MAF)-induced macrophage activation to kill Listeria monocytogenes following 5 days of culture in the presence or absence of MAF was performed during a 6 hour period as described in Hadden and England, Immunopharmacology, pages 87-100 (Plenum Press, 1977). Phagocytosis was quantitated during a 20-minute exposure to Listeria monocytogenes by counting the number of macrophages containing bacteria and the number of bacteria per phagocytic cell on gram stained monolayers in Labtek chambers. Intracellular killing of bacteria was evaluated by counting the number of cells containing bacteria and the number of bacteria/cell 6 hours after the initial 20 minute exposure. Parallel experiments in which macrophages were lysed and intracellular bacteria were cultured confirm the validity of bacterial activity determined by this manner in this system. The drugs were employed in each of the three systems over serial log concentration range in triplicate in the presence and absence of mitogen or lymphokine. Each type of experiment was performed at least three times. Previous experiments indicate a parallelism of response to pharmacologic modulation in the proliferation and achivation assays.
Table 4 above presents the results of an evaluation of a number of these subject compounds as potentiators of the immune response. Three different test systems were used. The first involves a measure of the ability of the test compound to enhance the ability of mouse lymphocytes to proliferate in response to a plant mitogen (Con A). The second involves measuring the ability of the test compounds to enhance human lymphocyte proliferation in response to a second plant mitogen (PHA). The third system measures the ability of these test substances to enhance macrophage proliferation in response to a natural lymphokine (MMF, Macrophage Mitogenic Factor).

The next data set concerns influenza virus. The data set can be described thus: microbe, parasite or virus in culture. Type of data set: cell-based, influenza virus Type A/USSR 90 (HeLa cell cultures).
The next data set in a line: Toxicity in mice. As to conditions: for LD50: mouse, in vivo.
Data set [1] is described as follows: Phase solubility study with DIP.PAcBA. Type of data set: physicochemical. The conditions noted are these: constant pH. The source says: This is indicative of an interaction occuring in solution to yield a complex.
The test system of another data set is A2 Hong Kong (H2 N2). The data set can be described thus: Inhibition of influenza virus replication, A2 Hong Kong. Type of data set: cell-based.
Another data set has as its system A/Texas/77 (H3 N2). Briefly: Inhibition of influenza virus replication, A/Texas/77. Type of data set: cell-based, influenza virus A/Texas/77.
Another data set deals with A/Jap/305 (H2 N2). The data set can be described thus: Inhibition of influenza virus replication, A/Jap/305. Type of data set: cell-based, influenza virus A/Jap/305.
Data set [2] has as its system Influenza A Swine 1976 (Hlsw -N1). Type of data set: cell-based. The conditions noted are these: A/Swine/76 (Hlsw N1).
A further data set has as its system A/Dunedin/73 (H3 N2). The data set can be described thus: Inhibition of influenza virus replication, A/Dunedin/73. Type of data set: cell-based, influenza virus A/Dunedin/73.
The subject of a further data set is A/PR8 (H0 N1). Briefly: Inhibition of influenza virus replication, A/PR8. Type of data set: cell-based.

Read-outs that look alike come from different tables or passages of the source.

In the case of `CCCCCC[C@H]([C@H](C)O)n1cnc2c(=O)[nH]cnc21` (relative stereo) [NPT 15392, ERYTHRO-9-(2-HYDROXY-3-NONYL)HYPOXANTHINE], the “Maximum Percent Change, Lymphokine Induced (MMF) Guinea Pig Mac. Prolif.” value in the data set with guinea pig macrophages (1.0-10 (unit not given)) came out at 23%; in the data set with guinea pig macrophages (.01-1.0 (unit not given)), 33%. Moreover, the “% Inhibition of Hemadsorption Foci” value with influenza virus (Test Compound Conc. <10 μg/ml) is recorded as 86%. For the same molecule, the inhibition at 100 µg/mL with influenza virus (unidentified influenza virus, read-out: % Inhibition of Hemadsorption Foci, Test Compound Conc. >100 μg/ml) was 100%. In addition, the drug related mortality entry in the data set “Toxicity in mice” (mice, doses of 1000 mg/kg) was “no drug related mortality was noted”. Further, the “solubility with DIP.PAcBA (phase solubility)” value in data set [1] was “increased solubility at increasing concentrations of DIP.PAcBA”.

For `CCCCCC[C@H]([C@H](C)O)n1cnc2c(=O)[nH]cnc21` (relative stereo) [NPT 15410], the “Inhibition of influenza virus replication” value in the data set on A2 Hong Kong (H2 N2) (10.0-100 μg/ml) is given as “++ (30-50% Inhibition)”; with A2 Hong Kong (H2 N2) (>100 μg/ml), “+++ (50-70% Inhibition)”; with A/Texas/77 (H3 N2) (A/Texas/77, 1.0-10.0 μg/ml), “+ (20-30% Inhibition)”; in the data set on A/Texas/77 (H3 N2) (A/Texas/77, 10.0-100 μg/ml), “++++ (>70% Inhibition)”; in the data set with A/Texas/77 (H3 N2) (A/Texas/77, .01-1.0 μg/ml) it was “++ (30-50% Inhibition)”; in the data set on A/Texas/77 (H3 N2) (A/Texas/77, >100 μg/ml), “++++ (>70% Inhibition)”. The “Inhibition of influenza virus replication” value was “++++ (>70% Inhibition)” in the data set on A/Jap/305 (H2 N2) (A/Jap/305, 10.0-100 μg/ml); “++++ (>70% Inhibition)” with A/Jap/305 (H2 N2) (A/Jap/305, >100 μg/ml); “++ (30-50% Inhibition)” in [2] (1.0-10.0 μg/ml); “++++ (>70% Inhibition)” in data set [2] (10.0-100 μg/ml); “+++ (50-70% Inhibition)” in [2] (.01-1.0 μg/ml); “++++ (>70% Inhibition)” in [2] (>100 μg/ml). The “Inhibition of influenza virus replication” value is recorded as “± (10-20% Inhibition)” in the data set on A/Dunedin/73 (H3 N2) (A/Dunedin/73, 10.0-100 μg/ml); “++ (30-50% Inhibition)” in the data set on A/Dunedin/73 (H3 N2) (A/Dunedin/73, >100 μg/ml); “++ (30-50% Inhibition)” with A/PR8 (H0 N1) (A/PR8, 1.0-10.0 μg/ml); “++++ (>70% Inhibition)” in the data set on A/PR8 (H0 N1) (A/PR8, 10.0-100 μg/ml); “++ (30-50% Inhibition)” with A/PR8 (H0 N1) (A/PR8, .01-1.0 μg/ml); “+++ (50-70% Inhibition)” in the data set on A/PR8 (H0 N1) (A/PR8, >100 μg/ml). Further, the “Maximum Percent Change, Lymphokine Induced (MMF) Guinea Pig Mac. Prolif.” value came out at 23% in the data set on guinea pig macrophages (1.0-10 (unit not given)) and 12% with guinea pig macrophages (.01-1.0 (unit not given)). For the same molecule, the figures for the “% Inhibition of Hemadsorption Foci” value in the data set on influenza virus (Test Compound Conc. <10 μg/ml) and in the data set on influenza virus (Test Compound Conc. >100 μg/ml) were 58% and 96%, respectively. The LD50 was 4300 mg/kg in “Toxicity in mice” and 4900 mg/kg in the data set “Toxicity in mice” (sc).
